Measured values taken from patent publication US10766894B2, “Aza-indazole compounds for use in tendon and/or ligament injuries” (NOVARTIS AG, priority 2016, dated 2020).
Like-named read-outs stand apart in the source and are kept apart here.

How the values were obtained:
[1] = target: recombinant human Tyk2 (aa888-1187) (Homo sapiens (Human), UniProt P29597); experiment: Kinase panel, substrate peptide phosphorylation (Caliper mobility shift), TYK2; assay type: biochemical; conditions: 3 nM kinase, 45 uM ATP, 60 min at 30° C.
[2] = target: recombinant human Jak3 (aa811-1124) (Homo sapiens (Human), UniProt P52333); experiment: Kinase panel, substrate peptide phosphorylation (Caliper mobility shift), JAK3; assay type: biochemical
[3] = system: Tenomodulin (Tnmd) gene expression in rat tail tendon fascicles; experiment: Ex vivo assay, tendon fascicles, Tenomodulin mRNA (qPCR); assay type: cell-based, Sprague Dawley rat; conditions: 96 h
[4] = target: recombinant human Jak1 (aa 866-1154) (Homo sapiens (Human), UniProt P23458); experiment: Kinase panel, substrate peptide phosphorylation (Caliper mobility shift), JAK1; assay type: biochemical; conditions: 3 nM kinase, 45 uM ATP, 60 min at 30° C.
[5] = system: collagen type 1 (Col1a2) gene expression in rat tail tendon fascicles; experiment: Ex vivo assay, tendon fascicles, collagen type 1 mRNA (qPCR); assay type: cell-based, Sprague Dawley rat; conditions: 96 h
[6] = system: Scleraxis (Scx) gene expression in rat tail tendon fascicles; experiment: Ex vivo assay, tendon fascicles, Scleraxis mRNA (qPCR); assay type: cell-based, Sprague Dawley rat; conditions: 96 h
[7] = target: recombinant human Jak2 (aa808-1132) (Homo sapiens (Human), UniProt O60674); experiment: Kinase panel, substrate peptide phosphorylation (Caliper mobility shift), JAK2; assay type: biochemical
[8] = Cumulative release from PLGA microparticle formulations in PBS buffer; assay type: physicochemical; conditions: incorporated into PLGA microparticles, PBS buffer pH 7.4, 1% Tween 20
From the text: In the current invention, the microparticles formulation contains a copolymer of DL-lactide and glycolide in a 50:50 molar ratio with an ester end group plus Test Compound A is used. The total amount of Test Compound A incorporated into the microparticles ranges from 2% to 10% (w/w). The microparticles are formulated to mean mass range in size from 5 to 25 microns. The population of microparticles is formulated to be delivered through a 22 gauges or higher needles (see Table A below). Organic solvent was used for preparation of microparticles were dichloromethane (DCM) and ethyl acetate (EA) either alone or in combination with methanol (MeOH) and/or dimethyl sulfoxide (DMSO) e.g., ratio of MeOH/DMSO from 5-15% in DCM or EA as primary solvent. Additional excipients may be added such as, but not limited to, carboxymethylcellulose sodium, mannitol and ploxamer to achieve isotonicity and promote syringeability.
(§1) Test Compound A incorporated into the microparticles provides an initial release (burst) of about 5-10% of drug over a period of 1 to 2 days, followed by a steady state release of drug over a period of 21 days (FIG. 1). In-vivo the microparticles could extend the release of Test Compound A over 4 weeks in a rat model.

[9] = system: mouse immortalized TT-D6 Scx-luciferase (ScxL) cell line; transcriptional activation of Scleraxis (Scx) gene; experiment: SCX-LUC in vitro assay (scleraxis promoter luciferase reporter); assay type: cell-based; conditions: Mus musculus, 96 h
[10] = In-vivo release from microparticles in a rat model
From the text: as §1

[11] = Rattus norvegicus, read-out: Ex vivo Tnmd (EC50 uM)
[12] = Rattus norvegicus, read-out: Ex vivo Col1a2 (EC50 uM)
[13] = Rattus norvegicus, read-out: Ex vivo SCX (EC50 uM)
[14] = Examples table, TT-D6 Scx-luciferase cells, 1 ng/ml TGFβ1, four days, read-out: Scx-Luc (EC50 μM)
[15] = Examples table, rat tail tendon fascicles, four days, delta-delta Ct, read-out: Ex vivo Tnmd (EC50 μM)
[16] = Examples table, rat tail tendon fascicles, four days, delta-delta Ct, read-out: Ex vivo Col1a2 (EC50 μM)
[17] = Examples table, rat tail tendon fascicles, four days, delta-delta Ct, read-out: Ex vivo Scx (EC50 μM)
[18] = Table 1, TT-D6 Scx-luciferase cells, 1 ng/ml TGFβ1, four days, read-out: Scx-Luc (EC50 uM)

recombinant human Tyk2 (aa888-1187), sequence (P29597 888-1187): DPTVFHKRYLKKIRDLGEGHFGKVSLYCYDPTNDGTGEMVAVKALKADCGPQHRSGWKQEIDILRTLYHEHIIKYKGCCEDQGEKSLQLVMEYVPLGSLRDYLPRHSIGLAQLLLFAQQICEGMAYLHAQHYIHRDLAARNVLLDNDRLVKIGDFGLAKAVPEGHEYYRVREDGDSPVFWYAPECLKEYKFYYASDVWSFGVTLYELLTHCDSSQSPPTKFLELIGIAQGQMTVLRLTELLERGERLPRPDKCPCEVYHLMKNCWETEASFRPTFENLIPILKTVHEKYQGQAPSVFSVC
recombinant human Jak3 (aa811-1124), sequence (P52333 811-1124 limits assumed): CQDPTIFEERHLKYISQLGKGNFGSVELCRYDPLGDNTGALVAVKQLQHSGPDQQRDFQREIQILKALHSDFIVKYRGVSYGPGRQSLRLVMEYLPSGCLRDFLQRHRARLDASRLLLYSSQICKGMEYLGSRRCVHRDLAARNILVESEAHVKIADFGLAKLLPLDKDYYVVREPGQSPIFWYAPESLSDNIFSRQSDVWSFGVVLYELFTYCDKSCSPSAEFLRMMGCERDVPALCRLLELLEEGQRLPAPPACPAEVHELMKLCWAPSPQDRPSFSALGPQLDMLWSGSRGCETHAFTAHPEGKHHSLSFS
recombinant human Jak2 (aa808-1132), sequence (O60674 808-1132): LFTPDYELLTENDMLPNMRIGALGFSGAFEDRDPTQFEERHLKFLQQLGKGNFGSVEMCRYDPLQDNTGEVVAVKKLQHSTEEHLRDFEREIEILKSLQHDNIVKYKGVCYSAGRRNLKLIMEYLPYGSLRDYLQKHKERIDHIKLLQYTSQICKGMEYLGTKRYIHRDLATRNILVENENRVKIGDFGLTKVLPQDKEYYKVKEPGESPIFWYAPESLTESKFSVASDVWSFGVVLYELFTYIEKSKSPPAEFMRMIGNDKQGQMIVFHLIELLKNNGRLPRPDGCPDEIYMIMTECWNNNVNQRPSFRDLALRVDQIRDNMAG
recombinant human Jak1 (aa 866-1154), sequence (P23458 866-1154): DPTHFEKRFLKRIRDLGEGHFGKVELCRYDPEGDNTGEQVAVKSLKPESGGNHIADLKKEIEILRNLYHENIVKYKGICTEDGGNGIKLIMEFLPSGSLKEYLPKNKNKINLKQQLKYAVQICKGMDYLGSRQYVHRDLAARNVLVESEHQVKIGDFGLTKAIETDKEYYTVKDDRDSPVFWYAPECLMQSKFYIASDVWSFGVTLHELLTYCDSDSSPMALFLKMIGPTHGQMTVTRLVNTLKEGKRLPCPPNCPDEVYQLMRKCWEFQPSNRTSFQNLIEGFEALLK

Compound: N#C[C@@H]1C[C@H](N2CCC2)CC[C@H]1n1cc(C(N)=O)c(Nc2ccc(C(F)(F)F)cc2)n1
- IC50 [1]: 0.12 µM
- IC50 [2]: 10 µM
- EC50 [3, 11]: 5.76 µM
- IC50 [4]: 0.002 µM
- EC50 [5, 12]: 3.65 µM
- EC50 [6, 13]: 5.63 µM
- IC50 [7]: 0.24 µM

Compound: Cc1cc(S(=O)(=O)N[C@H]2C[C@](O)(C(F)(F)F)C2)ccc1-c1ccc2[nH]nc(N)c2n1 [Example 2, 4-(3-amino-1H-pyrazolo[4,3-b]pyridin-5-yl)-N-((1s,3s)-3-hydroxy-3-(trifluoromethyl)cyclobutyl)-3-methylbenzenesulfonamide]
- period of steady state release of drug ([8]; after initial burst): 21 days
- initial release (burst) of drug ([8]; over a period of 1 to 2 days): 5-10%
- EC50 [9, 14]: 0.376 µM
- extended release in-vivo [10]: 4 weeks

Compound: Nc1n[nH]c2ccc(-c3ccc(S(=O)(=O)NC4CCS(=O)(=O)C4)cc3Cl)nc12 (stereo not drawn) [Example 31, 4-(3-amino-1H-pyrazolo[4,3-b]pyridin-5-yl)-3-chloro-N-(1,1-dioxidotetrahydrothiophen-3-yl)benzenesulfonamide]
- EC50 [9, 14]: 0.411 µM
- EC50 [3, 15]: 2.76 µM
- EC50 [5, 16]: 2.63 µM
- EC50 [6, 17]: 2.31 µM

Compound: Nc1n[nH]c2ccc(-c3ccc(S(=O)(=O)Nc4ccccc4)cc3Cl)nc12 [Example 38, 4-(3-amino-1H-pyrazolo[4,3-b]pyridin-5-yl)-3-chloro-N-phenylbenzenesulfonamide]
- EC50 [9, 14]: 0.61 µM
- EC50 [3, 15]: 1.89 µM
- EC50 [5, 16]: 0.396 µM
- EC50 [6, 17]: 0.188 µM

Compound: Nc1n[nH]c2ccc(-c3ccc(S(=O)(=O)NC4CCS(=O)(=O)CC4)cc3Cl)nc12 [Example 50, 4-(3-amino-1H-pyrazolo[4,3-b]pyridin-5-yl)-3-chloro-N-(1,1-dioxidotetrahydro-2H-thiopyran-4-yl)benzenesulfonamide]
- EC50 [9, 14]: > 10 µM
- EC50 [3, 15]: 6.3 µM
- EC50 [5, 16]: 6.37 µM
- EC50 [6, 17]: 2.33 µM

Compound: Nc1n[nH]c2ccc(-c3ccc(NS(=O)(=O)Cc4ccccc4)cc3Cl)nc12 [Example 59, N-(4-(3-amino-1H-pyrazolo[4,3-b]pyridin-5-yl)-3-chlorophenyl)-1-phenylmethanesulfonamide]
- EC50 [9, 14]: 4.32 µM
- EC50 [3, 15]: 4.61 µM
- EC50 [5, 16]: 5.71 µM
- EC50 [6, 17]: > 10 µM

Compound: Nc1n[nH]c2ccc(-c3ccc(S(=O)(=O)N4CC5CC5C4)cc3Cl)nc12 (stereo not drawn) [Example 63, 5-(4-(3-azabicyclo[3.1.0]hexan-3-ylsulfonyl)-2-chlorophenyl)-1H-pyrazolo[4,3-b]pyridin-3-amine]
- EC50 [9, 14]: 1.24 µM
- EC50 [3, 15]: 4.6 µM
- EC50 [5, 16]: 3.34 µM
- EC50 [6, 17]: 2.12 µM

Compound: Cc1cc(S(=O)(=O)N2CC(O)(C(F)(F)F)C2)ccc1-c1ccc2[nH]nc(N)c2n1 [Example 66, 1-((4-(3-amino-1H-pyrazolo[4,3-b]pyridin-5-yl)-3-methylphenyl)sulfonyl)-3-(trifluoromethyl)azetidin-3-ol]
- EC50 [9, 14]: 0.794 µM
- EC50 [3, 15]: 0.719 µM
- EC50 [5, 16]: 0.921 µM
- EC50 [6, 17]: 0.89 µM

Compound: Nc1n[nH]c2ccc(-c3ccc(S(=O)(=O)NCCO)cc3Cl)nc12 [Example 72, 4-(3-amino-1H-pyrazolo[4,3-b]pyridin-5-yl)-3-chloro-N-(2-hydroxyethyl)benzenesulfonamide]
- EC50 [9, 14]: 4.09 µM
- EC50 [3, 15]: 3.42 µM
- EC50 [5, 16]: 3.28 µM
- EC50 [6, 17]: 3.94 µM

Compound: Nc1n[nH]c2ccc(-c3ccc(NS(=O)(=O)c4ccc5ccccc5c4)cc3Cl)nc12 [Example 82, N-(4-(3-amino-1H-pyrazolo[4,3-b]pyridin-5-yl)-3-chlorophenyl)naphthalene-2-sulfonamide]
- EC50 [9, 14]: 2.61 µM
- EC50 [3, 15]: 4.87 µM
- EC50 [5, 16]: 7.27 µM
- EC50 [6, 17]: > 10 µM

Compound: CC(=O)N1CCOc2ccc(S(=O)(=O)Nc3ccc(-c4ccc5[nH]nc(N)c5n4)c(Cl)c3)cc21 [Example 86, 4-acetyl-N-(4-(3-amino-1H-pyrazolo[4,3-b]pyridin-5-yl)-3-chlorophenyl)-3,4-dihydro-2H-benzo[b][1,4]oxazine-6-sulfonamide]
- EC50 [9, 14]: 5.39 µM
- EC50 [3, 15]: 4.86 µM
- EC50 [5, 16]: > 10 µM
- EC50 [6, 17]: > 10 µM

Compound: CC(O)(C1CN(S(=O)(=O)c2ccc(-c3ccc4[nH]nc(N)c4n3)c(Cl)c2)CCN1)C(F)(F)F (stereo not drawn) [Example 89, 2-(4-((4-(3-amino-1H-pyrazolo[4,3-b]pyridin-5-yl)-3-chlorophenyl)sulfonyl)piperazin-2-yl)-1,1,1-trifluoropropan-2-ol]
- EC50 [9, 14]: 2.19 µM
- EC50 [3, 15]: 5.01 µM
- EC50 [5, 16]: 7.27 µM
- EC50 [6, 17]: 4.44 µM

Compound: Nc1n[nH]c2ccc(-c3ccc(S(=O)(=O)NC4CS(=O)(=O)C4)cc3Cl)nc12 [Example 92, 4-(3-amino-1H-pyrazolo[4,3-b]pyridin-5-yl)-3-chloro-N-(1,1-dioxidothietan-3-yl)benzenesulfonamide]
- EC50 [9, 14]: 0.968 µM
- EC50 [3, 15]: 6.28 µM
- EC50 [5, 16]: 1.35 µM
- EC50 [6, 17]: 4.89 µM

Compound: CS(=O)(=O)C1CN(S(=O)(=O)c2ccc(-c3ccc4[nH]nc(N)c4n3)c(Cl)c2)C1 [Example 93, 5-(2-chloro-4-((3-(methylsulfonyl)azetidin-1-yl)sulfonyl)phenyl)-1H-pyrazolo[4,3-b]pyridin-3-amine]
- EC50 [9, 14]: 5.74 µM
- EC50 [3, 15]: 3.52 µM
- EC50 [5, 16]: 1.76 µM
- EC50 [6, 17]: 2.95 µM

Compound: N#CC[C@H](C1CCCC1)n1cc(-c2ncnc3[nH]ccc23)cn1 [reference compound]
- EC50 ([9]; read-out: Scx-Luc (EC50 uM)): 0.12 µM
- EC50 [3, 11]: 0.74 µM
- EC50 [5, 12]: 2.64 µM
- EC50 [6, 13]: 3.13 µM

Compound: CC[C@@](C)(Nc1ccnc(-c2c[nH]c3ncccc23)n1)C(=O)NCC(F)(F)F [reference compound]
- EC50 ([9]; read-out: Scx-Luc (EC50 uM)): 0.03 µM
- EC50 [3, 11]: 1.77 µM
- EC50 [5, 12]: 0.88 µM
- EC50 [6, 13]: 1.65 µM

Compound: Cc1cc(Nc2nc(N[C@@H](C)c3ncc(F)cn3)ncc2Cl)n[nH]1 [reference compound]
- EC50 [9, 18]: 0.008 µM
- EC50 [3, 11]: 3.3 µM
- EC50 [5, 12]: 2.61 µM
- EC50 [6, 13]: 3.37 µM

Compound: N#C[C@H]1C[C@H](O)CC[C@@H]1n1cc(C(N)=O)c(Nc2ccc(C(F)(F)F)cc2)n1 [reference compound]
- IC50 [1]: 0.11 µM
- IC50 [2]: 10 µM
- EC50 ([9]; read-out: Scx-Luc (EC50 uM)): 2.06 µM
- EC50 [3, 11]: 3.82 µM
- IC50 [4]: 0.004 µM
- EC50 [5, 12]: 3.97 µM
- EC50 [6, 13]: 5.65 µM
- IC50 [7]: 0.15 µM

Compound: N#C[C@H]1C[C@@H](N2CCC2)CC[C@@H]1n1cc(C(N)=O)c(Nc2ccc(C(F)(F)F)cc2)n1 [reference compound]
- IC50 [1]: 1.8 µM
- IC50 [2]: 10 µM
- EC50 ([9]; read-out: Scx-Luc (EC50 uM)): 2.05 µM
- EC50 [3, 11]: 0.08 µM
- IC50 [4]: 0.04 µM
- EC50 [5, 12]: 0.42 µM
- EC50 [6, 13]: 1.16 µM
- IC50 [7]: 2.7 µM

Compound: N#C[C@H]1CC(=O)CC[C@@H]1n1cc(C(N)=O)c(Nc2ccc(C(F)(F)F)cc2)n1 [reference compound]
- EC50 [9, 18]: 1.24 µM
- EC50 ([3]; Table 1, rat tail tendon fascicles, four days, delta-delta Ct, read-out: Ex vivo Tnmd (EC50 uM)): 4.83 µM
- EC50 ([5]; Table 1, rat tail tendon fascicles, four days, delta-delta Ct, read-out: Ex vivo Col1a2 (EC50 uM)): 0.94 µM
- EC50 ([6]; Table 1, rat tail tendon fascicles, four days, delta-delta Ct, read-out: Ex vivo SCX (EC50 uM)): 0.85 µM

Compound: O=C(Nc1nc2cccc(-c3ccc(OCc4cccnc4)cc3)n2n1)C1CC1 [reference compound]
- EC50 [9, 18]: 0.02 µM
- EC50 [3, 11]: 5.99 µM
- EC50 [5, 12]: 0.4 µM
- EC50 [6, 13]: 0.36 µM

Compound: O=C(Nc1nc2cccc(-c3ccc(CN4CCS(=O)(=O)CC4)cc3)n2n1)C1CC1 [reference compound]
- EC50 ([9]; read-out: Scx-Luc (EC50 uM)): 4.32 µM
- EC50 [3, 11]: 6.93 µM
- EC50 [5, 12]: 5.01 µM
- EC50 [6, 13]: 5.34 µM
